From US20240083900A1, “PYRAZOLO[1,5-A]PYRAZINE DERIVATIVES AS BTK INHIBITORS” (BIOGEN MA INC., priority 2020, published 2024)
Read-outs that look alike come from different tables or passages of the source.

Legend:
[1] = tested on: CD69 expression on CD19+ B cells in human whole blood stimulated with anti-human IgD; test: In Vitro whole blood CD69 Assay; format: cell-based; settings: Homo sapiens, B-cell
BTK = BTK (Homo sapiens (Human), UniProt Q06187); test: In Vitro BTK Kinase Assay: Btk-PolyGAT-LS Assay; format: biochemical; settings: BTK enzyme 0.25 nM, ATP 10 μM, polyGAT 100 nM, 30 minutes incubation, TRF readout; read-out: IC50
Description: The purpose of the BTK in vitro assay is to determine compound potency against BTK through the measurement of IC50. […] For a typical assay, a 24 μL aliquot of a ATP/peptide master mix (final concentration; ATP 10 μM, polyGAT 100 nM) in kinase buffer (10 mM Tris-HCl pH 7.5, 10 mM MgCl2, 200 μM Na3PO4, 5 mM DTT, 0.01% Triton X-100, and 0.2 mg/ml casein) is added to each well. […] The assay is incubated for 30 minutes before being stopped with 28 μL of a 50 mM EDTA solution. […] The plate is covered and incubated for 45 minutes at room temperature.

[2] = human heparinized whole blood, anti-human IgD stimulation overnight, percentage of CD19+ B cells expressing CD69, flow cytometry, read-out: IC50

BTK, sequence (Q06187 whole entry): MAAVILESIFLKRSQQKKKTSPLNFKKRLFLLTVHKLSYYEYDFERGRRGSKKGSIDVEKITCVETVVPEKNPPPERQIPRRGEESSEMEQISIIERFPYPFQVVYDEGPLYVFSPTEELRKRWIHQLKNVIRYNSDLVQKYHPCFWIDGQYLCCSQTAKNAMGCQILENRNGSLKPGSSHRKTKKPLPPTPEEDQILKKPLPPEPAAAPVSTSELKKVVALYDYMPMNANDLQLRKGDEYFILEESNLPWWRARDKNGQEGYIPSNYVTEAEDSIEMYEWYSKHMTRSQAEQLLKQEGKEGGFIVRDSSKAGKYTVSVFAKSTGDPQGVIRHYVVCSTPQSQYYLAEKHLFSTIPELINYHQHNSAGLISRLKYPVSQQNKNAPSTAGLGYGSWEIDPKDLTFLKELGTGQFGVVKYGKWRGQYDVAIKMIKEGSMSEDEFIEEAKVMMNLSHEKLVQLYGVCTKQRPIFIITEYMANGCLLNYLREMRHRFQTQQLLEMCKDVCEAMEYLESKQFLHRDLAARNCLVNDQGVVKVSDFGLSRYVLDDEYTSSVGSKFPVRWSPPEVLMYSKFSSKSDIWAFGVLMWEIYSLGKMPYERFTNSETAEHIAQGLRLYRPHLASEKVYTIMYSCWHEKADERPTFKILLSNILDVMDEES

| Compound | IC50 (BTK) [µM] | further results |
| --- | --- | --- |
| C=CC(=O)N(C)C12CCCC(Oc3nc(-c4cnn(C)c4)cn4nccc34)(C1)C2 [Example 225, N-methyl-N-(5-((6-(1-methyl-1H-pyrazol-4-yl)pyrazolo[1,5-a]pyrazin-4-yl)oxy)bicyclo[3.1.1]heptan-1-yl)acrylamide] |  | IC50 [1, 2]: < 1 µM |
| C=CC(=O)N(C)[C@H]1C[C@@](C)(Oc2nc(-c3cnn(C)c3)cc3nccn23)C1 [Example 236, N-methyl-N-((1s,3s)-3-methyl-3-((7-(1-methyl-1H-pyrazol-4-yl)imidazo[1,2-c]pyrimidin-5-yl)oxy)cyclobutyl)acrylamide] |  | IC50 [1]: < 1 µM |
| C=CC(=O)N1CC[C@@H]2[C@H]1C[C@]2(C)Oc1nc(-c2cnn(C)c2)cn2nccc12 [Example 190, 1-((1R,5R,6S)-6-methyl-6-((6-(1-methyl-1H-pyrazol-4-yl)pyrazolo[1,5-a]pyrazin-4-yl)oxy)-2-azabicyclo[3.2.0]heptan-2-yl)prop-2-en-1-one] |  | IC50 [1, 2]: < 1 µM |
| C=CC(=O)N1C[C@@H]2C[C@@](C)(Oc3nc(-c4cnn(C)c4)cn4nccc34)[C@@H]2C1 [Example 199, 1-((1R,5S,6R)-6-methyl-6-((6-(1-methyl-1H-pyrazol-4-yl)pyrazolo[1,5-a]pyrazin-4-yl)oxy)-3-azabicyclo[3.2.0]heptan-3-yl)prop-2-en-1-one] |  | IC50 [1, 2]: 1 to 10 µM |
| C=CC(=O)N1C[C@@H]2[C@@H](COc3nc(-c4cnn(C)c4)cn4nccc34)[C@@H]2C1 [Example 214, 1-((1R,5S,6r)-6-(((6-(1-methyl-1H-pyrazol-4-yl)pyrazolo[1,5-a]pyrazin-4-yl)oxy)methyl)-3-azabicyclo[3.1.0]hexan-3-yl)prop-2-en-1-one] |  | IC50 [1, 2]: < 1 µM |
| C=CC(=O)N(C)[C@H]1C[C@@](C)(Oc2nc(-c3cnn(C)c3)cn3nccc23)C1 [Example 79, N-methyl-N-((1s,3s)-3-methyl-3-((6-(1-methyl-1H-pyrazol-4-yl)pyrazolo[1,5-a]pyrazin-4-yl)oxy)cyclobutyl)acrylamide] |  | IC50 [1]: < 1 µM |
| C=CC(=O)N1CCC(Oc2nc(-c3cnn(C)c3)cn3nccc23)CC1 [Example 2, 1-(4-((6-(1-methyl-1H-pyrazol-4-yl)pyrazolo[1,5-a]pyrazin-4-yl)oxy)piperidin-1-yl)prop-2-en-1-one] |  | IC50 [1, 2]: > 10 µM |
| C=CC(=O)N(C)[C@H]1CC[C@@H](Oc2nc(-c3cnn(C)c3)cn3nccc23)C1 [Example 145, N-methyl-N-((1S,3R)-3-((6-(1-methyl-1H-pyrazol-4-yl)pyrazolo[1,5-a]pyrazin-4-yl)oxy)cyclopentyl)acrylamide] |  | IC50 [1, 2]: < 1 µM |
| C=CC(=O)N(C)[C@@H]1CC[C@H](Oc2nc(-c3cnn(C)c3)cn3nccc23)C1 (relative stereo) [Example 143, N-methyl-N-((cis)-3-((6-(1-methyl-1H-pyrazol-4-yl)pyrazolo[1,5-a]pyrazin-4-yl)oxy)cyclopentyl)acrylamide] |  | IC50 [1, 2]: < 1 µM |
| C=CC(=O)N1CCC[C@@H](Oc2nc(-c3cnn(C)c3)cn3nccc23)C1 [Example 4, (R)-1-(3-((6-(1-methyl-1H-pyrazol-4-yl)pyrazolo[1,5-a]pyrazin-4-yl)oxy)piperidin-1-yl)prop-2-en-1-one] |  | IC50 [1, 2]: > 10 µM |
| C=CC(=O)N1CCC(CNc2nc(-c3cnn(C)c3)cn3nccc23)CC1 [Example 18, 1-(4-(((6-(1-methyl-1H-pyrazol-4-yl)pyrazolo[1,5-a]pyrazin-4-yl)amino)methyl)piperidin-1-yl)prop-2-en-1-one] | 0.001 to 0.01 |  |
| C=CC(=O)N(C)CC1(COc2nc(-c3cnn(C)c3)cn3nccc23)CC1 [Example 216, N-methyl-N-((1-(((6-(1-methyl-1H-pyrazol-4-yl)pyrazolo[1,5-a]pyrazin-4-yl)oxy)methyl)cyclopropyl)methyl)acrylamide] | 0.01 to 1 |  |
| C/C=C/C(=O)Nc1cc(Oc2nc(-c3cnn(C)c3)cn3nccc23)ccc1C [Example 131, (E)-N-(2-methyl-5-((6-(1-methyl-1H-pyrazol-4-yl)pyrazolo[1,5-a]pyrazin-4-yl)oxy)phenyl)but-2-enamide] | 0.01 to 1 |  |
| Cc1c(NC(=O)C2=CCC2)cc(F)cc1Oc1nc(-c2cnn(C)c2)cn2nccc12 [Example 134, N-(5-fluoro-2-methyl-3-((6-(1-methyl-1H-pyrazol-4-yl)pyrazolo[1,5-a]pyrazin-4-yl)oxy)phenyl)cyclobut-1-ene-1-carboxamide] | 0.001 to 0.01 |  |
| CC#CC(=O)N(C)[C@@H]1CC[C@@H]2C[C@]2(Oc2nc(-c3cnn(C)c3)cn3nccc23)C1 (single isomer, unassigned) [Example 114] | 0.01 to 1 |  |
| C=CC(=O)N(C)[C@@H]1C[C@](C)(Oc2nc(-c3cnn(C)c3)cn3nccc23)[C@@H]1C (single isomer, unassigned) [Example 105] | 0.01 to 1 |  |
| C=CC(=O)N1CCCC(Oc2nc(-c3cn(C)nc3C)cn3nccc23)CC1 (single isomer, unassigned) [Example 69 E2, 1-[4-[6-(1,3-dimethylpyrazol-4-yl)pyrazolo[1,5-a]pyrazin-4-yl]oxyazepan-1-yl]prop-2-en-1-one] | 0.01 to 1 |  |

| Compound | IC50 (BTK) [µM] | further results |
| --- | --- | --- |
| CC#CC(=O)NC1CCCC(Oc2nc(-c3cnn(C)c3)cc3nccn23)C1 (stereo not shown) [Example 52] | 0.001 to 0.01 |  |
| C=CC(=O)N1CCC[C@@H](Oc2nc(-c3cc(OC)ncn3)cn3nccc23)CC1 [Example 74, (R)-1-(4-((6-(6-methoxypyrimidin-4-yl)pyrazolo[1,5-a]pyrazin-4-yl)oxy)azepan-1-yl)prop-2-en-1-one] | 0.01 to 1 |  |
| C=CC(=O)N1C[C@@H]2C[C@H]1C[C@H]2Oc1nc(-c2cnn(C)c2)cn2nccc12 [Example 152, 1-((1S,4S,5R)-5-((6-(1-methyl-1H-pyrazol-4-yl)pyrazolo[1,5-a]pyrazin-4-yl)oxy)-2-azabicyclo[2.2.1]heptan-2-yl)prop-2-en-1-one] | 0.001 to 0.01 |  |
| C=CC(=O)N1CCC[C@@H](Oc2cc(-c3cnn(C)c3)cc3nccn23)CC1 [Example 65, 1-[(4R)-4-[7-(1-methylpyrazol-4-yl)imidazo[1,2-a]pyridin-5-yl]oxyazepan-1-yl]prop-2-en-1-one] | 0.001 to 0.01 |  |
| C=CC(=O)N1CCC2(CC1)CC(Oc1nc(-c3cnn(C)c3)cn3nccc13)C2 [Example 208, 1-(2-((6-(1-methyl-1H-pyrazol-4-yl)pyrazolo[1,5-a]pyrazin-4-yl)oxy)-7-azaspiro[3.5]nonan-7-yl)prop-2-en-1-one] | 0.01 to 1 |  |
| C=CC(=O)N(C)CC(C)CCOc1nc(-c2cnn(C)c2)cn2nccc12 (stereo not shown) [Example 184, N-methyl-N-(2-methyl-4-((6-(1-methyl-1H-pyrazol-4-yl)pyrazolo[1,5-a]pyrazin-4-yl)oxy)butyl)acrylamide] | 0.01 to 1 |  |
| CC#CC(=O)N[C@@H]1CCC[C@H](Oc2nc(-c3cnn(C)c3)cn3nccc23)C1 [Example 180, N-((1R,3S)-3-((6-(1-methyl-1H-pyrazol-4-yl)pyrazolo[1,5-a]pyrazin-4-yl)oxy)cyclohexyl)but-2-ynamide] | 0.01 to 1 |  |
| C#CC(=O)N1CCC(Oc2nc(-c3cnn(C)c3)cc3nccn23)CC1 [Example 49] | 0.01 to 1 |  |
| C=CC(=O)N1CC2CC1CC2Nc1cc(-c2cnn(C)c2)cn2nccc12 (stereo not shown) [Example 88, 1-(5-((6-(1-methyl-1H-pyrazol-4-yl)pyrazolo[1,5-a]pyridin-4-yl)amino)-2-azabicyclo[2.2.1]heptan-2-yl)prop-2-en-1-one] | 0.001 to 0.01 |  |
| C=CC(=O)N1CC[C@]2(CC[C@H](Oc3nc(-c4cnn(C)c4)cn4nccc34)C2)C1 (single isomer, unassigned) [Example 204] | 0.01 to 1 |  |
| Cn1cc(-c2cn3nccc3c(O[C@H]3C[C@H](N(C)C(=O)/C=C/CCl)C3)n2)cn1 [Example 227, (E)-4-chloro-N-methyl-N-((trans)-3-((6-(1-methyl-1H-pyrazol-4-yl)pyrazolo[1,5-a]pyrazin-4-yl)oxy)cyclobutyl)but-2-enamide] | < 0.001 |  |
| C=CC(=O)N1CCC(COc2nc(-c3cnn(C)c3)cc3nccn23)C1 (stereo not shown) [Example 42] | 0.01 to 1 |  |
| O=C(/C=C/C(F)(F)F)Nc1cccc(Oc2nc(-c3cnn(C4CCOC4)c3)cn3nccc23)c1F (stereo not shown) [Example 136, (E)-4,4,4-trifluoro-N-(2-fluoro-3-((6-(1-(tetrahydrofuran-3-yl)-1H-pyrazol-4-yl)pyrazolo[1,5-a]pyrazin-4-yl)oxy)phenyl)but-2-enamide] | 0.001 to 0.01 |  |
| C=CS(=O)(=O)N1CCC[C@@H](Oc2nc(-c3cnn(C)c3)cc3nccn23)CC1 (single isomer, unassigned) [Example 36, (R)- or (S)-7-(1-methyl-1H-pyrazol-4-yl)-5-((1-(vinylsulfonyl)azepan-4-yl)oxy)imidazo[1,2-c]pyrimidine] | 0.001 to 0.01 |  |
| C=CC(=O)N1CCC[C@@H]2[C@H]1C[C@]2(C)Oc1nc(-c2cnn(C)c2)cn2nccc12 (single isomer, unassigned) [Example 112] | 0.01 to 1 |  |
| C#CC(=O)N1CCC[C@@H](Oc2nc(-c3cnn(C)c3)cc3nccn23)CC1 (single isomer, unassigned) [Example 35, (S) or (R)-1-(4-((7-(1-methyl-1H-pyrazol-4-yl)imidazo[1,2-c]pyrimidin-5-yl)oxy)azepan-1-yl)prop-2-yn-1-one] | 0.001 to 0.01 |  |
| C=CC(=O)N1C[C@@H]2C[C@@H](Oc3nc(-c4cnn(C)c4)cn4nccc34)C[C@@H]21 (racemic) [Example 209, rac-((1S,3R,5S)-3-((6-(1-methyl-1H-pyrazol-4-yl)pyrazolo[1,5-a]pyrazin-4-yl)oxy)-6-azabicyclo[3.2.0]heptan-6-yl)prop-2-en-1-one] | < 0.001 |  |
